PMC11878344 (Angewandte Chemie (International Ed. in English), 2025)

Assays:
[1] = molecular target: T1, MAGL splicing variants in mouse brain proteome (Mus musculus, UniProt O35678); experiment: In-gel SDS-PAGE fluorescence labeling of mouse brain proteome with irreversible probes; format: biochemical
T1 sequence (O35678 1-303): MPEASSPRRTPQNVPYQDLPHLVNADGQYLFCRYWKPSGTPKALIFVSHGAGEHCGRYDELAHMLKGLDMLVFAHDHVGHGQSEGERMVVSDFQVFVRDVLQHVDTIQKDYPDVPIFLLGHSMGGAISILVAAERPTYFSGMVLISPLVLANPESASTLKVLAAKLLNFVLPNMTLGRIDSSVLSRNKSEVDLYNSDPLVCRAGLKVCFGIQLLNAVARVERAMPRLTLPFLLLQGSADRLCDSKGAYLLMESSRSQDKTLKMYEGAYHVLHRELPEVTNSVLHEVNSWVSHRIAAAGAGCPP
Method: (§1) Activity‐based protein profiling (ABPP)[49] was used to determine the selectivity of the reversible probes (9, 10) versus a broad range of other serine hydrolases, including the relevant ECS off‐targets DAGL, FAAH, ABHD6, and ABHD12.[45, 49, 50, 51] The ABPP assay was studied in the mouse brain proteome (MBP) at 1 μM concentration as mouse brain homogenate is the most relevant model system for studying ECS enzymes.[45, 49, 50, 51] […] The irreversible probes 11 and 12 could be used to visualize MAGL by in‐gel SDS‐PAGE fluorescence of MBP samples and, thereby, directly showing the specificity of 11 and 12 towards the two MAGL splicing variants present in MBP over a broad range of concentrations. Starting at 1 nM probe concentration, MAGL was detected and only at elevated concentrations greater than 1 μM, minor off‐target protein labeling at approx. 80 kDa started to appear (Figure 3 B). In addition to testing in mouse brain lysates, we also determined the binding of MAGL probes 9–12 towards a panel of 50 off‐targets via a competitive radioligand binding screen to detect interference with potential safety‐related off‐targets (Figure 3 C).
(§2) Mouse brain sample preparation. […] Protein concentration was determined with Bradford Assay, and samples were diluted to a final concentration of 2.0 mg/mL. […]

[2] = test system: serine hydrolases of the mouse brain proteome (MAGL, DAGL, FAAH, ABHD6, ABHD12); experiment: Competitive multiplex ABPP in mouse brain proteome; format: biochemical; conditions: 1 μM probe
Method: as §1, §2

Structure (SMILES) | Probe concentration at which minor off-target protein labeling (approx. 80 kDa) appears [1] | Probe concentration from which MAGL was detected [1] | Blocking of serine hydrolase fluorescence signal (selectivity) [2]
CN(C)c1ccc2c(c1)[Si](C)(C)c1cc(N(C)C)ccc1C21OC(=O)c2ccc(C(=O)NCCCCCOc3ccccc3CC3CC4(C3)CN(C(=O)OC(C(F)(F)F)C(F)(F)F)C4)cc21 (stereo not drawn) [Compound 12] | greater than 1 μM | ≥ 1 nM | –
CN(C)c1ccc2c(c1)[Si](C)(C)c1cc(N(C)C)ccc1C21OC(=O)c2ccc(C(=O)NCCCCCOc3ccccc3CC3CC4(C3)CN(C(=O)N3CC5(COC(=O)N5)C3)C4)cc21 (stereo not drawn) [Compound 10] | – | – | Complete blocking of the fluorescence signal was exclusively observed for MAGL
